Assay results from patent US20240158418A1 (C4 Therapeutics, Inc., priority 2021, published 2024).

Target: T1, EGFR L858R-T790M (Homo sapiens, UniProt P00533, L858R/T790M)
T1 construct: NCI-H1975 (harboring EGFR heterozygous L858R-T790M mutations); host or cells: NCI-H1975
Assay: EGFR degradation, Total EGFR (L858R-specific) HTRF, NCI-H1975
Assay type: cell-based
Settings: Table 9A; NCI-H1975 cells, 6 hours, Total EGFR HTRF; read-out: H1975 EGFR DC50
Description: NCI-H1975 (harboring EGFR heterozygous L858R-T790M mutations) and NCI-H3255 (harboring EGFR heterozygous L858R mutation) were purchased from ATCC and NCI, respectively. NCI-H1975+CS (harboring EGFR heterozygous L858R-T790M-C797S mutations) was generated using CRISPR technology to introduce the additional C797S mutation by Horizon Discovery. A431 (harboring EGFR wildtype) was purchased from ATCC. RPMI 1640 no-phenol red medium and fetal bovine serum (FBS) were purchased from Gibco (Grand Island, NY, USA). Cell culture flasks and 384-well microplates were acquired from VWR (Radnor, PA, USA). Phosphorylated (pY1068) EGFR and Total EGFR (using L858R-specific detection antibody and pan-EGFR antibody for EGFR mutant cell lines and EGFR wild-type cell lines, respectively) HTRF assay kits were purchased from Cisbio (Bedford, MA, USA).
Degradation of EGFR protein containing L858R mutation or wild-type was determined based on quantification of FRET signal using a Total EGFR (L858R-specific or pan-EGFR detecting) HTRF assay kit. Phospho-EGFR (pEGFR) inhibition was determined based on quantification of FRET signal using a pY1068 EGFR HTRF assay kit. In separate assay plates, test compounds were added to the 384-well plate from a top concentration of 10 μM with 11 points, half log titration in duplicates. For each assay, 12.5 uL of cells suspended in assay media (RPMI 1640 no-phenol red medium+10% FBS) at cell densities indicated for each cell line in Table 8 below were dispensed using a multi-channel pipette to 384-well low volume white HTRF microplates containing a duplicate concentration range of test compounds and DMSO controls. The plates were kept at 37° C. with 5% CO2 for 6 hours and then incubated with either phospho EGFR or Total EGFR HTRF detection antibodies according to the cell line and EGFR mutant being assayed. Cells treated in the absence of the test compound were the negative control. Positive control was set by wells containing all reagents but no cells. FRET signal was acquired on EnVision™ Multilabel Reader (PerkinElmer, Santa Clara, CA, USA). Compound concentration that achieves 50% degradation and inhibition was reported as DC50 and IC50, respectively.

T1 sequence (P00533 25-1210 T790M/L858R): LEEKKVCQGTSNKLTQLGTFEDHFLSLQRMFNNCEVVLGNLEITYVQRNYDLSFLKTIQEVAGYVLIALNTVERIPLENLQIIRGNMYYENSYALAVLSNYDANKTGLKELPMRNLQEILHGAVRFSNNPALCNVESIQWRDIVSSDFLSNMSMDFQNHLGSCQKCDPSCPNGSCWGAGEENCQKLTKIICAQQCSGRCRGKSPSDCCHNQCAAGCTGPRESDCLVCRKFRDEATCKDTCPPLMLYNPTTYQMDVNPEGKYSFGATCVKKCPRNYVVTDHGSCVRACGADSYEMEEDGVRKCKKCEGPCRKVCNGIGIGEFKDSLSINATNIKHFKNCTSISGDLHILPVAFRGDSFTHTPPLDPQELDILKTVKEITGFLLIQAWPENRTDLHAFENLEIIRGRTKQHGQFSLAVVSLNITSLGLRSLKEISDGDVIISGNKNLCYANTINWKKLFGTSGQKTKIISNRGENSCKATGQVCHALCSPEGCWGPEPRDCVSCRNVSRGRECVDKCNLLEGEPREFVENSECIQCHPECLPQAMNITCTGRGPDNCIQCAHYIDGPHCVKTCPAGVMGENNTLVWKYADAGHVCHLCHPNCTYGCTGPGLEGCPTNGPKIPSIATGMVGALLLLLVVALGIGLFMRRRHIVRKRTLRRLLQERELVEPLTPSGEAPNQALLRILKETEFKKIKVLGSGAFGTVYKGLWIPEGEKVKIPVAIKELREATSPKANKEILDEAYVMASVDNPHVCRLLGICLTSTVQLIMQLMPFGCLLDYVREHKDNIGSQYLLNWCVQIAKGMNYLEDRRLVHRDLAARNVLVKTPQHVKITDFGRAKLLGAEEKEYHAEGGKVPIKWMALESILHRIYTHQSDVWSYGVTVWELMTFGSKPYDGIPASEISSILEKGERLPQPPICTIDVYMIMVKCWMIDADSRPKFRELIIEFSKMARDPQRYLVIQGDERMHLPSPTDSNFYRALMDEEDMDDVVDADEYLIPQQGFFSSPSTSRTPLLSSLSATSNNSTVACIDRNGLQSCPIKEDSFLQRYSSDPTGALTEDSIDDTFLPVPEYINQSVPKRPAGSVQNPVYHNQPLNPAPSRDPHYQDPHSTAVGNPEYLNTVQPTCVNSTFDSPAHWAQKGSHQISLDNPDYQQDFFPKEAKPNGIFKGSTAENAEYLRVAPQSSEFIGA

| DC50 [nM] | Structure (SMILES) |
| --- | --- |
| < 50 | O=C1CCC(Oc2ccc(N3CCN(CC(=O)N4CCC(NC(=O)c5ccc(C#Cc6cc(F)c7c(c6)C(=O)N(C(C(=O)Nc6nccs6)c6ncn8c6CCC8)C7)cn5)CC4)CC3)cc2)C(=O)N1 (centres unmarked) [Compound 51, 5-[2-[2-[1-(6,7-dihydro-5H-pyrrolo[1,2-c]imidazol-1-yl)-2-oxo-2-(thiazol-2-ylamino)ethyl]-7-fluoro-3-oxo-isoindolin-5-yl]ethynyl]-N-[1-[2-[4-[4-[(2,6-dioxo-3-piperidyl)oxy]phenyl]piperazin-1-yl]acetyl]-4-piperidyl]pyridine-2-carboxamide] |
| < 50 | Cn1nc(N2CCC(=O)NC2=O)c2ccc(C3CCN(CC(=O)N4CC5(C4)CN(c4ccc(-c6cc(F)c7c(c6)C(=O)N(C(C(=O)Nc6ccccn6)c6ncn8c6CCC8)C7)cc4)C5)CC3)cc21 (centres unmarked) [Compound 54, 2-(6,7-dihydro-5H-pyrrolo[1,2-c]imidazol-1-yl)-2-[6-[4-[2-[2-[4-[3-(2,4-dioxohexahydropyrimidin-1-yl)-1-methyl-indazol-6-yl]-1-piperidyl]acetyl]-2,6-diazaspiro[3.3]heptan-6-yl]phenyl]-4-fluoro-1-oxo-isoindolin-2-yl]-N-(2-pyridyl)acetamide] |

Same assay, conditions: Table 9B; NCI-H1975 cells, 6 hours, Total EGFR HTRF; read-out: H1975 EGFR DC50

| Structure (SMILES) | DC50 [nM] |
| --- | --- |
| O=C1CC[C@@H](Nc2ccc(N3CCC(O)(CC(=O)N4CC5(C4)CN(c4ccc(-c6cc(F)c7c(c6)C(=O)N(C(C(=O)Nc6nccs6)c6ncn8c6CCC8)C7)cn4)C5)CC3)c(F)c2)C(=O)N1 (stereo partly drawn) [Compound 111, 2-(6,7-dihydro-5H-pyrrolo[1,2-c]imidazol-1-yl)-2-(6-(6-(6-(2-(1-(4-(((R)-2,6-dioxopiperidin-3-yl)amino)-2-fluorophenyl)-4-hydroxypiperidin-4-yl)acetyl)-2,6-diazaspiro[3.3]heptan-2-yl)pyridin-3-yl)-4-fluoro-1-oxoisoindolin-2-yl)-N-(thiazol-2-yl)acetamide] | < 50 |
| Cn1nc(N2CCC(=O)NC2=O)c2ccc([C@H]3CCN(CC(=O)N4CC5(C4)CN(c4ccc(-c6cc(F)c7cn(C(C(=O)Nc8nccs8)c8ncn9c8CCC9)nc7c6)cc4)C5)CC3(F)F)cc21 (stereo partly drawn) [Compound 76, 2-(6,7-dihydro-5H-pyrrolo[1,2-c]imidazol-1-yl)-2-(6-(4-(6-(2-((R)-4-(3-(2,4-dioxotetrahydropyrimidin-1(2H)-yl)-1-methyl-1H-indazol-6-yl)-3,3-difluoropiperidin-1-yl)acetyl)-2,6-diazaspiro[3.3]heptan-2-yl)phenyl)-4-fluoro-2H-indazol-2-yl)-N-(thiazol-2-yl)acetamide] | < 50 |
| O=C1CC[C@H](Nc2ccc(N3CCC(O)(CC(=O)N4CCC5(CC4)CN(c4ccc(-c6cc(F)c7cn(C(C(=O)Nc8nccs8)c8ncn9c8CCC9)nc7c6)cc4)C5)CC3)c(F)c2)C(=O)N1 (stereo partly drawn) [Compound 79, 2-(6,7-dihydro-5H-pyrrolo[1,2-c]imidazol-1-yl)-2-(6-(4-(7-(2-(1-(4-(((S)-2,6-dioxopiperidin-3-yl)amino)-2-fluorophenyl)-4-hydroxypiperidin-4-yl)acetyl)-2,7-diazaspiro[3.5]nonan-2-yl)phenyl)-4-fluoro-2H-indazol-2-yl)-N-(thiazol-2-yl)acetamide] | < 50 |
| O=C1CCC(Nc2ccc(C3CCN(C(=O)CC4CCN(c5ccc(-c6cc(F)c7c(c6)C(=O)N(C(C(=O)Nc6nccs6)c6ncn8c6CCC8)C7)cc5)CC4)CC3)c(F)c2)C(=O)N1 (centres unmarked) [Compound 86, 2-(6,7-dihydro-5H-pyrrolo[1,2-c]imidazol-1-yl)-2-[6-[4-[4-[2-[4-[4-[(2,6-dioxo-3-piperidyl)amino]-2-fluoro-phenyl]-1-piperidyl]-2-oxo-ethyl]-1-piperidyl]phenyl]-4-fluoro-1-oxo-isoindolin-2-yl]-N-thiazol-2-yl-acetamide] | 50 to 150 |
| O=C1CCC(Nc2ccc(N3CCC(O)(CC(=O)N4CCC5(CC4)CN(c4ccc(-c6cc(F)c7c(c6)C(=O)N(C(C(=O)Nc6nccs6)c6ncn8c6CCC8)C7)cc4)C5)CC3)c(F)c2)C(=O)N1 (centres unmarked) [Compound 114, 2-(6,7-dihydro-5H-pyrrolo[1,2-c]imidazol-1-yl)-2-[6-[4-[7-[2-[1-[4-[(2,6-dioxo-3-piperidyl)amino]-2-fluoro-phenyl]-4-hydroxy-4-piperidyl]acetyl]-2,7-diazaspiro[3.5]nonan-2-yl]phenyl]-4-fluoro-1-oxo-isoindolin-2-yl]-N-thiazol-2-yl-acetamide] | < 50 |
| O=C1CCC(Nc2ccc(N3CCC(O)(CC(=O)N4CC5(C4)CN(c4ccc(-c6ccc7cn(C(C(=O)Nc8nccs8)c8ncn9c8CCC9)nc7c6F)cn4)C5)CC3)cc2F)C(=O)N1 (centres unmarked) [Compound 71, 2-(6,7-dihydro-5H-pyrrolo[1,2-c]imidazol-1-yl)-2-[6-[6-[2-[2-[1-[4-[(2,6-dioxo-3-piperidyl)amino]-3-fluoro-phenyl]-4-hydroxy-4-piperidyl]acetyl]-2,6-diazaspiro[3.3]heptan-6-yl]-3-pyridyl]-7-fluoro-indazol-2-yl]-N-thiazol-2-yl-acetamide] | < 50 |

Results, then the compound that gave them:

| DC50 [nM] | Structure (SMILES) |
| --- | --- |
| < 50 | Cn1nc(N2CCC(=O)NC2=O)c2ccc(C3CCN(C(=O)CN4CC5(C4)CN(c4ccc(-c6cc(F)c7c(c6)C(=O)N(C(C(=O)Nc6nccs6)c6ncn8c6CCC8)C7)cn4)C5)CC3(F)F)cc21 (centres unmarked) [Compound 118, 2-(6,7-dihydro-5H-pyrrolo[1,2-c]imidazol-1-yl)-2-(6-(6-(6-(2-(4-(3-(2,4-dioxotetrahydropyrimidin-1(2H)-yl)-1-methyl-1H-indazol-6-yl)-3,3-difluoropiperidin-1-yl)-2-oxoethyl)-2,6-diazaspiro[3.3]heptan-2-yl)pyridin-3-yl)-4-fluoro-1-oxoisoindolin-2-yl)-N-(thiazol-2-yl)acetamide] |
| < 50 | O=C1CC[C@H](Nc2ccc(N3CCC(O)(CC(=O)N4CC5(C4)CN(c4ccc(-c6cc(Cl)c7c(c6)C(=O)N(C(C(=O)Nc6nccs6)c6ncn8c6CCC8)C7)cc4)C5)CC3)c(F)c2)C(=O)N1 (stereo partly drawn) [Compound 136, 2-[4-chloro-6-[4-[2-[2-[1-[4-[[(3S)-2,6-dioxo-3-piperidyl]amino]-2-fluoro-phenyl]-4-hydroxy-4-piperidyl]acetyl]-2,6-diazaspiro[3.3]heptan-6-yl]phenyl]-1-oxo-isoindolin-2-yl]-2-(6,7-dihydro-5H-pyrrolo[1,2-c]imidazol-1-yl)-N-thiazol-2-yl-acetamide] |
| < 50 | O=C1CCC(Nc2ccc(N3CCC(O)(CC(=O)N4CCC5(CC4)CN(c4ccc(-c6cc(F)c7c(c6)C(=O)N(C(C(=O)Nc6nccs6)c6ncn8c6CCC8)C7)cc4)C5)CC3)c(Cl)c2)C(=O)N1 (single isomer, unassigned; isomer 1) [Compound 138, 2-[6-[4-[7-[2-[1-[2-chloro-4-[[2,6-dioxo-3-piperidyl]amino]phenyl]-4-hydroxy-4-piperidyl]acetyl]-2,7-diazaspiro[3.5]nonan-2-yl]phenyl]-4-fluoro-1-oxo-isoindolin-2-yl]-2-(6,7-dihydro-5H-pyrrolo[1,2-c]imidazol-1-yl)-N-thiazol-2-yl-acetamide, isomer 1] |
| < 50 | O=C1CCN(c2ccc(N3CCC(O)(CC(=O)N4CC5(CCN(c6ccc(-c7cc(F)c8c(c7)C(=O)N(C(C(=O)Nc7nccs7)c7ncn9c7CCC9)C8)cc6)CC5)C4)CC3)c(F)c2)C(=O)N1 (centres unmarked) [Compound 163, 2-(6,7-dihydro-5H-pyrrolo[1,2-c]imidazol-1-yl)-2-[6-[4-[2-[2-[1-[4-(2,4-dioxohexahydropyrimidin-1-yl)-2-fluoro-phenyl]-4-hydroxy-4-piperidyl]acetyl]-2,7-diazaspiro[3.5]nonan-7-yl]phenyl]-4-fluoro-1-oxo-isoindolin-2-yl]-N-thiazol-2-yl-acetamide] |
| < 50 | Cn1nc(N2CCC(=O)NC2=O)c2ccc(C3CCN(CC(=O)N4CCC5(CC4)CN(c4ccc(-c6cc(F)c7c(c6)C(=O)N(C(C(=O)Nc6nccs6)c6ncn8c6CCC8)C7)cc4)C5)CC3(F)F)cc21 (centres unmarked) [Compound 174] |
| < 50 | O=C1CCN(c2cc(Cl)c(N3CCC(O)(CC(=O)N4CC5(C4)CN(c4ccc(-c6cc(F)c7c(c6)C(=O)N(C(C(=O)Nc6nccs6)c6ncn8c6CCC8)C7)cc4)C5)CC3)c(Cl)c2)C(=O)N1 (centres unmarked) [Compound 169, 2-[6-[4-[2-[2-[1-[2,6-dichloro-4-(2,4-dioxohexahydropyrimidin-1-yl)phenyl]-4-hydroxy-4-piperidyl]acetyl]-2,6-diazaspiro[3.3]heptan-6-yl]phenyl]-4-fluoro-1-oxo-isoindolin-2-yl]-2-(6,7-dihydro-5H-pyrrolo[1,2-c]imidazol-1-yl)-N-thiazol-2-yl-acetamide] |
